Patent US6982348B2, “Aminoethanol derivatives” (Takeda Pharmaceutical Company Limited, priority 2001, dated 2006)

Compound	melting point
CC(C)Oc1cccc(C[C@@H](NC(=O)c2cccc3c2C=CCCC3)[C@@H](O)c2ccc(F)cc2)c1 (racemic) [Example 282, N-[(1RS,2SR)-2-(4-fluorophenyl)-2-hydroxy-1-(3-isopropoxybenzyl)ethyl]-6,7-dihydro-5H-benzo[a]cycloheptene-1-carboxamide]	161 to 162 °C
O=C(N[C@H](Cc1ccc(C(F)(F)F)cc1)[C@@H](O)c1ccc(F)cc1)c1ccc(Oc2ccc(Cl)cc2)cc1 (racemic) [Example 90, 4-(4-chlorophenoxy)-N-[(1RS,2SR)-2-(4-fluorophenyl)-2-hydroxy-1-[4-(trifluoromethyl)benzyl]ethyl]benzenecarboxamide]	188 to 189 °C
O=C(NC(Cc1ccc(C(F)(F)F)cc1)C(O)c1ccc(F)cc1)C1CCCC1 (racemic) [Example 5, N-[2-(4-fluorophenyl)-2-hydroxy-1-[[4-(trifluoromethyl)phenyl]methyl]ethyl]cyclopentanecarboxamide]	139 to 155 °C
O=C(N[C@H](Cc1cccc(OC(F)(F)C(F)F)c1)[C@@H](O)c1ccc(Cl)nc1)c1cccc2c1C=CCCC2 (racemic) [Example 329, N-[(1RS,2SR)-2-(6-chloropyridin-3-yl)-2-hydroxy-1-[3-(1,1,2,2-tetrafluoroethoxy)benzyl]ethyl]-6,7-dihydro-5H-benzo[a]cycloheptene-1-carboxamide]	170 to 172 °C
O=C(N[C@H](Cc1ccc(C(F)(F)F)cc1)[C@@H](O)c1ccc(Cl)nc1)c1ccc(F)c2ccccc12 (racemic) [Example 202, N-((1RS,2SR)-2-(6-chloro-3-pyridyl)-2-hydroxy-1-((4-(trifluoromethyl)phenyl)methyl)ethyl)-4-fluoro-1-naphthalenecarboxamide]	188 to 189 °C
O=C(N[C@H](Cc1ccc(C(F)(F)F)cc1)[C@@H](O)c1ccc(F)cc1)c1ccnc2ccccc12 (racemic) [Example 57, N-((1RS,2SR)-2-(4-fluorophenyl)-2-hydroxy-1-((4-(trifluoromethyl)phenyl)methyl)ethyl)-4-quinolinecarboxamide]	227 to 228 °C
Cc1ccc(C(=O)N[C@H](Cc2ccc(C(F)(F)F)cc2)[C@@H](O)c2ccc(F)cc2)c2ccccc12 (racemic) [Example 36, N-((1RS,2SR)-2-(4-fluorophenyl)-2-hydroxy-1-((4-(trifluoromethyl)phenyl)methyl)ethyl)-4-methyl-1-naphthalenecarboxamide]	198 to 199 °C
O=C(N[C@H](Cc1ccc(C(F)(F)F)cc1)[C@@H](O)c1cccc(F)c1)c1ccc(F)c2ccccc12 (racemic) [Example 176, 4-fluoro-N-((1RS,2SR)-2-(3-fluorophenyl)-2-hydroxy-1-((4-(trifluoromethyl)phenyl)methyl)ethyl)-1-naphthalenecarboxamide]	200 to 201 °C
O=C(O)COc1ccc([C@@H](O)[C@H](Cc2cccc(OC(F)(F)C(F)F)c2)NC(=O)c2cccc3c2C=CCCC3)cc1 (racemic) [Example 251, (4-{(1RS,2SR)-2-[(6,7-dihydro-5H-benzo[a][7]annulen-1-ylcarbonyl)amino]-1-hydroxy-3-[3-(1,1,2,2-tetrafluoroethoxy)phenyl]propyl}phenoxy)acetic acid]	119 to 120 °C
CN(C)C(=O)c1ccc([C@H](O)[C@@H](Cc2cccc(OC(F)(F)C(F)F)c2)NC(=O)c2cccc3c2C=CCCC3)cc1 (racemic) [Example 312, N-[(1RS,2SR)-2-[4-[(dimethylamino)carbonyl]phenyl]-2-hydroxy-1-[3-(1,1,2,2-tetrafluoroethoxy)benzyl]ethyl]-6,7-dihydro-5H-benzo[a]cycloheptene-1-carboxamide]	165 to 166 °C
O=C(N[C@H](Cc1ccc(C(F)(F)F)cc1)[C@@H](O)c1ccc(F)cc1)c1c2ccccc2cc2ccccc12 (racemic) [Example 84, N-((1RS,2SR)-2-(4-fluorophenyl)-2-hydroxy-1-((4-(trifluoromethyl)phenyl)methyl)ethyl)-9-anthracenecarboxamide]	251 to 252 °C
COc1ccc([C@H](O)[C@@H](Cc2cccc(OC(F)(F)C(F)F)c2)NC(=O)c2cccc3c2C=CCCC3)cc1 (racemic) [Example 242, N-{(1RS,2SR)-2-hydroxy-2-(4-methoxyphenyl)-1-[3-(1,1,2,2-tetrafluoroethoxy)benzyl]ethyl}-6,7-dihydro-5H-benzo[a][7]annulene-1-carboxamide]	151 to 152 °C
O=C(N[C@H](Cc1ccc(C(F)(F)F)cc1)[C@H](O)c1ccc(F)cc1)c1cccc2ccccc12 (racemic) [Example 26, N-((1RS,2RS)-2-(4-fluorophenyl)-2-hydroxy-1-((4-(trifluoromethyl)phenyl)methyl)ethyl)-1-naphthalenecarboxamide]	134 to 135 °C
O=C(N[C@H](Cc1cccc(OC(F)(F)C(F)F)c1)[C@@H](O)c1ccc(O)cc1)c1cccc2c1C=CCCC2 (racemic) [Example 241, N-{(1RS,2SR)-2-hydroxy-2-(4-hydroxyphenyl)-1-[3-(1,1,2,2-tetrafluoroethoxy)benzyl]ethyl}-6,7-dihydro-5H-benzo[a][7]annulene-1-carboxamide]	167 to 168 °C
CC(C)NC(=O)c1ccc([C@H](O)[C@@H](Cc2cccc(OC(F)(F)C(F)F)c2)NC(=O)c2cccc3c2C=CCCC3)cc1 (racemic) [Example 315, N-[(1RS,2SR)-2-hydroxy-2-[4-[(isopropylamino)carbonyl]phenyl]-1-[3-(1,1,2,2-tetrafluoroethoxy)benzyl]ethyl]-6,7-dihydro-5H-benzo[a]cycloheptene-1-carboxamide]	215 to 217 °C
O=C(N[C@H](Cc1ccc(C(F)(F)F)cc1)[C@@H](O)c1ccc(F)cc1)c1cccc2cc([N+](=O)[O-])ccc12 (racemic) [Example 51, N-[(1RS,2SR)-2-(4-fluorophenyl)-2-hydroxy-1-[4-(trifluoromethyl)benzyl]ethyl]-6-nitronaphthalene-1-carboxamide]	206 to 207 °C
O=C(N[C@H](Cc1ccc(CC(F)(F)C(F)(F)F)cc1)[C@@H](O)c1cccc(Cl)c1)c1cccc2c1C=CCCC2 (racemic) [Example 374, N-[(1RS,2SR)-1-[4-(2,2,3,3,3-pentafluoropropyl)benzyl]-2-(3-chlorophenyl)-2-hydroxyethyl]-6,7-dihydro-5H-benzo[a]cycloheptene-1-carboxamide]	176 to 177 °C
COc1ccccc1-c1ccc([C@H](O)[C@@H](Cc2cccc(OC(F)(F)C(F)F)c2)NC(=O)c2cccc3c2C=CCCC3)cc1 (racemic) [Example 296, N-[(1RS,2SR)-2-hydroxy-2-(2′-methoxy[1,1′-biphenyl]-4-yl)-1-[3-(1,1,2,2-tetrafluoroethoxy)benzyl]ethyl]-6,7-dihydro-5H-benzo[a]cycloheptene-1-carboxamide]	148 to 150 °C
CC(C)C(F)(F)Cc1ccc(C[C@@H](NC(=O)c2ccc(F)c3ccccc23)[C@@H](O)c2cccc(Cl)c2)cc1 (racemic) [Example 353, N-[(1RS,2SR)-2-(3-chlorophenyl)-1-[4-(2,2-difluoro-3-methylbutyl)benzyl]-2-hydroxyethyl]-4-fluoronaphthalene-1-carboxamide]	181 to 182 °C
CC(C)(C)OC(=O)N[C@H](Cc1cccc(OC(F)(F)C(F)F)n1)[C@@H](O)c1ccc(F)cc1 (racemic) [Example 238, tert-butyl (1RS,2SR)-2-(4-fluorophenyl)-2-hydroxy-1-{[6-(1,1,2,2-tetrafluoroethoxy)pyridin-2-yl]methyl}ethylcarbamate]	109 to 110 °C
CC(F)(F)c1ccc(C[C@@H](NC(=O)c2ccc(F)c3ccccc23)[C@@H](O)c2ccc(F)cc2)cc1 (racemic) [Example 166, N-[(1RS,2SR)-1-[4-(1,1-difluoroethyl)benzyl]-2-(4-fluorophenyl)-2-hydroxyethyl]-4-fluoronaphthalene-1-carboxamide]	220 to 221 °C
O=C(CCCc1ccccc1)N[C@H](Cc1ccc(F)cc1)[C@@H](O)c1ccc(F)cc1 (racemic) [Example 147, N-((1RS,2SR)-2-(4-fluorophenyl)-1-((4-fluorophenyl)methyl)-2-hydroxyethyl)-4-phenylbutyramide]	147 to 148 °C
CC(C)(C)OC(=O)N[C@H](Cc1cccc(OC(F)(F)C(F)F)c1)[C@@H](O)c1cccc(F)n1 (racemic) [Example 221, 1,1-dimethylethyl(1RS,2RS)-2-(6-fluoropyridin-2-yl)-2-hydroxy-1-((3-(1,1,2,2-tetrafluoroethoxy)phenyl)methyl)ethylcarbamate]	140 to 141 °C
CC(C)Oc1cccc(C[C@@H](NC(=O)c2ccc(F)c3ccccc23)[C@@H](O)c2ccc(F)cc2)c1 (racemic) [Example 283, 4-fluoro-N-[(1RS,2SR)-2-(4-fluorophenyl)-2-hydroxy-1-(3-isopropoxybenzyl)ethyl]-1-naphthamide]	190 to 191 °C
Cc1cc(C)c(C(=O)NC(Cc2ccc(C(F)(F)F)cc2)C(O)c2ccc(F)cc2)c(C)c1 (racemic) [Example 17, N-[2-(4-fluorophenyl)-2-hydroxy-1-[[4-(trifluoromethyl)phenyl]methyl]ethyl]-2,4,6-trimethylbenzamide]	141 to 143 °C
O=C(CCc1ccccc1)N[C@H](Cc1ccc(C(F)(F)F)cc1)[C@@H](O)c1ccoc1 (racemic) [Example 196, N-((1RS,2SR)-2-(3-furanyl)-2-hydroxy-1-((4-(trifluoromethyl)phenyl)methyl)ethyl)-3-phenylpropanamide]	134 to 135 °C
Cc1ccc(C(=O)NC(Cc2ccc(C(F)(F)F)cc2)C(O)c2ccc(F)cc2)c2ccccc12 (racemic) [Example 2, N-(2-(4-fluorophenyl)-2-hydroxy-1-((4-(trifluoromethyl)phenyl)methyl)ethyl)-4-methyl-1-naphthalenecarboxamide]	149 to 150 °C
O=C(N[C@H](Cc1ccc(C(F)(F)F)cc1)[C@@H](O)c1ccc(F)cc1)c1ccc([C@@H]2O[C@@H]2c2ccc(Cl)cc2)cc1 (racemic) [Example 93, 4-[cis-3-(4-chlorophenyl)oxiran-2-yl]-N-[(1RS,2SR)-2-(4-fluorophenyl)-2-hydroxy-1-[4-(trifluoromethyl)benzyl]ethyl]benzenecarboxamide]	162 to 166 °C
